Measured values as given in PMC11363324 (ACS Central Science, 2024).

Tests used:
C57BL/6J mice [1] = assay: animal or person; type: in vivo; conditions: Mus musculus, sc, read-out: antinociception ED50 (and 95% CI)
C57BL/6J mice [2] = conditions: mouse, in vivo

SMILES: CN1CC[C@]23c4c5ccc(O)c4O[C@H]2[C@@H](O)C=C[C@H]3[C@H]1C5 [Morphine]
- ED50 (C57BL/6J mice [1]): 4 mg/kg
- withdrawal: jumping frequency vs saline (C57BL/6J mice [2]; C57BL/6J): ****p < 0.0001
- withdrawal: teeth chattering frequency vs saline (C57BL/6J mice [2]; C57BL/6J): ***p = 0.0003
- withdrawal: forepaw licking frequency vs saline (C57BL/6J mice [2]): significant
- withdrawal: rearing frequency vs saline (C57BL/6J mice [2]): significant
